Assays:
[1] = system: mNotch1ΔE; experiment: Notch signaling CBF1-luciferase reporter assay in HeLa cells transfected with mNotch1ΔE; assay type: cell-based
Procedure: (§1) Inhibition of Notch signaling in cultured cells using a mouse-derived truncated Notch1 transgene, mNotch-ΔE [67], has been described in detail previously. Western blots for mNotchΔ1865 and NICD using 9E10 anti-c-myc monoclonal were carried out as previously described.
(§2) The effect of BMS-869780 on Notch processing was evaluated using transcriptional reporter assays and western blotting of NICD levels. HeLa cell cultures were transfected with mNotch1ΔE and CBF1-luciferase reporter constructs and treated with BMS-869780. In most replicates of this experiment, inhibition of luciferase reporter occurred with IC50 > 10 μM. […] To further evaluate the effect of BMS-869780 on Notch processing, western blots of cell cultures were carried out using mNotch1Δ1865, a truncated version of mNotch1ΔE that facilitates separation of NICD product from mNotch1 substrate on western blots. HeLa cell cultures were transfected with mNotch1Δ1865 and treated overnight with compounds before western blotting. […] Furthermore, the GSIs caused an increased level of mNotch1Δ1865 substrate, most likely due to inhibition of its turnover by γ-secretase, as previously noted by Blat et al..
(§3) (b) HeLa cell cultures were transfected with mNotchΔ1865, treated with compounds overnight, and cell extracts were evaluated by western blot using anti-c-myc-HRP conjugate. Lanes 1 and 9: DMSO (0.1%) vehicle. Lane 2: BMS-299897 at 1 μM. Lane 3: BMS-433796 at 0.3 μM. Lanes 4–8: BMS-869780 at 0.1, 0.3, 1, 3, and 10 μM, respectively.

[2] = system: Aβ1-42 (H4-APPsw); experiment: Aβ1-42 time-resolved fluorescence immunoassay in H4-APPsw cell cultures; assay type: cell-based, human; conditions: Homo sapiens; H4-APPsw cultures treated overnight
Procedure: (§4) H4-APPsw cell cultures were maintained on Dulbecco's modified Eagle's medium (DMEM) supplemented with L-glutamine (2 mM), fetal bovine serum (10%), and G418 (100 μg/mL). […] Aβ1-42 and Aβ1-40 assays, and Notch inhibition assays, were carried out as described previously. Mouse embryonic fibroblasts deficient in PS1 and PS2 (MEF dKO) were passaged twice per week in DMEM/F-12 medium, consisting of a 1 : 1 mixture of DMEM and F-12 nutrient mixture supplemented with 10% fetal bovine serum, penicillin, and streptomycin. For expression of human presenilin-1 in MEF dKO cells, the full length human presenilin-1 cDNA open reading frame was cloned between the BamHI and XhoI sites of the vector pcDNA5/FRT (Invitrogen), placing presenilin-1 expression under the control of the CMV promoter. The M146V mutated allele was introduced into the presenilin-1 expression construct by polymerase chain reaction using the oligonucleotide primers 5′-[…]-3′ and 5′-[…]-3 (QuikChange kit, Invitrogen). MEF dKO cultures were cotransfected with DNA constructs expressing APP-CTF, encoding the C-terminal 99 amino acids of APP [61] and either the human presenilin-1 or presenilin-1 M146V allele. Transfected cultures were incubated overnight at 37°C in 5% CO2 atmosphere and then harvested, resuspended in DMEM/F-12 medium, dispensed into 96-well culture plates, and incubated for 6 hours at 37°C in 5% CO2 atmosphere. Culture medium was then replaced with Ultraculture serum free medium (Lonza, Rockland, ME) with or without compounds at a range of concentrations and incubated overnight.
(§5) IC50 determinations for Aβ1-42 and Aβ1-40 in H4-APPsw cultures in 384-well format were determined using homogeneous time-resolved fluorescence immunoassays as previously described. The principle of these assays is illustrated in Figures 1(c) and 1(d). In other experiments using H4-APPsw cultures, Aβ was quantified by ELISA; for Aβ1-42 the combination of monoclonal antibodies was 26D6 and 565-HRP; for Aβ1-40 it was TSD and 26D6-HRP, and for Aβ1-x it was 4G8 and 26D6-HRP. In some experiments a novel 4-plex Aβ electrochemiluminescence immunoassay was used (Mesoscale Discovery catalog number N45ZA-1). Briefly, the 4-plex was carried out in 96-well format, with 4 separate spots of capture antibodies in each well. […] For Aβ in transiently transfected PS1/PS2 dKO fibroblasts, Aβ1-42 was quantified using an ELISA kit (WACO), and Aβ1-40 was quantified by ELISA as described above for H4-APPsw cultures. […] For the rat and mouse experiments illustrated in Figures 7 and 8, brain samples were prepared by solid phase extraction, and endogenous rat brain Aβ1-42 and Aβ1-40 were quantified by ELISA as previously described for wild type mice. […]

[3] = system: mNotch1Δ1865; experiment: Western blot of NICD and mNotch1Δ1865 in transfected HeLa cell cultures; assay type: cell-based; conditions: BMS-299897 at 1 μM, BMS-433796 at 0.3 μM
Procedure: as §1, §2, §3

[4] = system: Aβ1-40 (H4-APPsw); experiment: Aβ1-40 time-resolved fluorescence immunoassay in H4-APPsw cell cultures; assay type: cell-based, human; conditions: Homo sapiens; H4-APPsw cultures treated overnight
Procedure: as §4, §5

With `C[C@H](NC(=O)[C@@H](O)c1cc(F)cc(F)c1)C(=O)N[C@@H]1C(=O)N(C)N=Cc2ccccc21` [BMS-433796, (S)-2-((S)-2-(3,5-difluorophenyl)-2-hydroxyacetamido)-N-((S,Z)-3-methyl-4-oxo-4,5-dihydro-3H-benzo[d][1,2]diazepin-5-yl)propanamide, reference compound] the “Notch/Aβ1-42 IC50 ratios” value ([1]; GSIs) was 13, the IC50 ([1]; HeLa, treated overnight) was 2.1 nM and the mNotch1ΔE/Aβ1-42 ([1]; ratio of IC50 values) was 13x. The IC50 [2] was 0.16 nM, the NICD levels [3] was “greatly reduced NICD” and the IC50 [4] was 0.19 nM.
